# Laboratory results: US20070249670A1, “Glycogen Phosphorylase Inhibitor Compounds and Pharmaceutical Compositions Thereof” (SMITHKLINE BEECHAM CORPORATION, priority 2004, published 2007)
# pIC50: −log10 of the molar value.
# Target: T1, human liver glycogen phosphorylase a (HLGPa) (Homo sapiens, UniProt P06737)
# T1 construct: creating a full-length cDNA fused at the 5′ end to codons for methionine-glycine-alanine-histidine; 6xHis tag (leader Met-Gly-Ala-His6-Gly-Gly) (N); made in house; host or cells: E. coli (bacterial expression plasmid pTXK1007LTev)
# T1 sequence (P06737 2-847 limits assumed): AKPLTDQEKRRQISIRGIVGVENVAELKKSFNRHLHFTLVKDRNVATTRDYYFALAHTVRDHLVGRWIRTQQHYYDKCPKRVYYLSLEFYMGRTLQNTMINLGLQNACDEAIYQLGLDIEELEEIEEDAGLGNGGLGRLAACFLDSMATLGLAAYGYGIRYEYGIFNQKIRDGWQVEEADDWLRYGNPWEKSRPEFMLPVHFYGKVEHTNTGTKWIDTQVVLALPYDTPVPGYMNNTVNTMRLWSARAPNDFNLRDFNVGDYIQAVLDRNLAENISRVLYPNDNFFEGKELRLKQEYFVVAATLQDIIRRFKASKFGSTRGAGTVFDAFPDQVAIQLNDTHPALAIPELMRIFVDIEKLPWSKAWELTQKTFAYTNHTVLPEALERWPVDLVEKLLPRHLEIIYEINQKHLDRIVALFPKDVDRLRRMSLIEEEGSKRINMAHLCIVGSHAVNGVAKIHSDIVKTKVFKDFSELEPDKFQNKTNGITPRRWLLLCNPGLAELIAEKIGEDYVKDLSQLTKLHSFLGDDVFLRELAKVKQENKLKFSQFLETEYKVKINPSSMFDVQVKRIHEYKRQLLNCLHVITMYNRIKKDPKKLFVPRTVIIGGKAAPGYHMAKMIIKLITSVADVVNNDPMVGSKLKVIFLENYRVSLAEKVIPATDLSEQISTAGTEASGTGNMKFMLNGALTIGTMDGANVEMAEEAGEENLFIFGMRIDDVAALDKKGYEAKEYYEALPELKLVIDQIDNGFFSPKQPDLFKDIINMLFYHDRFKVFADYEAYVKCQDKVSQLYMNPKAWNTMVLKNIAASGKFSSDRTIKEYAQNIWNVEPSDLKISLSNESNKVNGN
# Assay: Human liver glycogen phosphorylase a enzymatic activity assay (coupled, fluorescent resorufin readout, with and without 10 mM glucose)
# Format: biochemical
# Details: human liver glycogen phosphorylase a enzymatic activity assay
row,Structure (SMILES),pIC50
1,"COc1ccc(-c2cc(NC(=O)Nc3c(C)cc(C)cc3C)c(C(=O)N[C@@H](COC(C)(C)C)C(=O)O)s2)cc1 [Example 445, O-(1,1-dimethylethyl)-N-{[5-[4-(methyloxy)phenyl]-3-({[(2,4,6-trimethylphenyl)amino]carbonyl}amino)-2-thienyl]carbonyl}-L-serine]",7.09
2,"COc1ccc(-c2cc(NC(=O)Nc3c(C)cc(C)cc3C)c(C(=O)N[C@H](C(=O)O)[C@@H](C)OC(C)(C)C)s2)cc1 [Example 446, O-(1,1-dimethylethyl)-N-{[5-[4-(methyloxy)phenyl]-3-({[(2,4,6-trimethylphenyl)amino]carbonyl}amino)-2-thienyl]carbonyl}-L-threonine]",7.51
3,"COc1ccc(-c2cc(NC(=O)Nc3c(C)cc(C)cc3C)c(C(=O)N3CCC[C@H]3C(=O)O)s2)cc1 [Example 447, 1-{[5-[4-(methyloxy)phenyl]-3-({[(2,4,6-trimethylphenyl)amino]carbonyl}amino)-2-thienyl]carbonyl}-L-proline]",7.59
4,"COc1ccc(-c2cc(NC(=O)Nc3c(C)cc(C)cc3C)c(C(=O)N3CCCC[C@H]3C(=O)O)s2)cc1 [Example 448, (2S)-1-{[5-[4-(methyloxy)phenyl]-3-({[(2,4,6-trimethylphenyl)amino]carbonyl}amino)-2-thienyl]carbonyl}-2-piperidinecarboxylic acid]",6.43
5,"COc1ccc(-c2cc(NC(=O)Nc3c(C)cc(C)cc3C)c(C(=O)NC3(C(=O)O)CC3)s2)cc1 [Example 449, 1-({[5-[4-(methyloxy)phenyl]-3-({[(2,4,6-trimethylphenyl)amino]carbonyl}amino)-2-thienyl]carbonyl}amino)cyclopropanecarboxylic acid]",6.47
6,"COc1ccc(-c2cc(NC(=O)Nc3c(C)cc(C)cc3C)c(C(=O)NC3(C(=O)O)CCC3)s2)cc1 [Example 450, 1-({[5-[4-(methyloxy)phenyl]-3-({[(2,4,6-trimethylphenyl)amino]carbonyl}amino)-2-thienyl]carbonyl}amino)cyclobutanecarboxylic acid]",6.60
7,"COc1ccc(-c2cc(NC(=O)Nc3c(C)cc(C)cc3C)c(C(=O)NC3(C(=O)O)CCCC3)s2)cc1 [Example 451, 1-({[5-[4-(methyloxy)phenyl]-3-({[(2,4,6-trimethylphenyl)amino]carbonyl}amino)-2-thienyl]carbonyl}amino)cyclopentanecarboxylic acid]",7.33
8,"COc1ccc(-c2cc(NC(=O)Nc3c(C)cc(C)cc3C)c(C(=O)NC3(C(=O)O)CCCCC3)s2)cc1 [Example 452, 1-({[5-[4-(methyloxy)phenyl]-3-({[(2,4,6-trimethylphenyl)amino]carbonyl}amino)-2-thienyl]carbonyl}amino)cyclohexanecarboxylic acid]",8.52
9,"COc1ccc(-c2cc(NC(=O)Nc3c(C)cc(C)cc3C)c(C(=O)NC3(C(=O)O)CCCCCC3)s2)cc1 [Example 453, 1-({[5-[4-(methyloxy)phenyl]-3-({[(2,4,6-trimethylphenyl)amino]carbonyl}amino)-2-thienyl]carbonyl}amino)cycloheptanecarboxylic acid]",8.40
10,"COc1ccc(-c2cc(NC(=O)Nc3c(C)cc(C)cc3C)c(C(=O)NC3(C(=O)O)CCCCCCC3)s2)cc1 [Example 454, 1-({[5-[4-(methyloxy)phenyl]-3-({[(2,4,6-trimethylphenyl)amino]carbonyl}amino)-2-thienyl]carbonyl}amino)cyclooctanecarboxylic acid]",9.00
11,"O=C(Nc1cc2ccccc2cc1C(=O)N[C@H](C(=O)O)C1CCCCC1)Nc1c(Cl)cc(F)cc1Cl [Example 455, (2S)-cyclohexyl({[3-({[(2,6-dichloro-4-fluorophenyl)amino]carbonyl}amino)-2-naphthalenyl]carbonyl}amino)ethanoic acid]",7.07
12,"C[C@](NC(=O)c1cc2ccccc2cc1NC(=O)Nc1c(Cl)cc(Cl)cc1Cl)(C(=O)O)C1CCCCC1 [Example 456, 2-cyclohexyl-N-{[3-({[(2,4,6-trichlorophenyl)amino]carbonyl}amino)-2-naphthalenyl]carbonyl}-L-alanine]",6.64
13,"Cc1cc(C)c(CC(=O)Nc2cc3ccccc3cc2C(=O)N[C@H](C(=O)O)C2CCCCC2)c(C)c1 [Example 457, (2S)-cyclohexyl{[(3-{[(2,4,6-trimethylphenyl)acetyl]amino}-2-naphthalenyl)carbonyl]amino}ethanoic acid]",7.19
14,"Cc1cc(Br)cc(C)c1NC(=O)Nc1cc2ccccc2cc1C(=O)N[C@H](C(=O)O)C1CCCCC1 [Example 458, (2S)-({[3-({[(4-bromo-2,6-dimethylphenyl)amino]carbonyl}amino)-2-naphthalenyl]carbonyl}amino)(cyclohexyl)ethanoic acid]",6.66
15,"O=C(Cc1c(Cl)ccc(Cl)c1Cl)Nc1cc2ccccc2cc1C(=O)N[C@H](C(=O)O)C1CCCCC1 [Example 459, (2S)-cyclohexyl{[(3-{[(2,3,6-trichlorophenyl)acetyl]amino}-2-naphthalenyl)carbonyl]amino}ethanoic acid]",6.74
16,"CCc1cc(C)c(NC(=O)Nc2cc3ccccc3cc2C(=O)N[C@H](C(=O)O)C2CCCCC2)c(C)c1 [Example 460, (2S)-cyclohexyl({[3-({[(4-ethyl-2,6-dimethylphenyl)amino]carbonyl}amino)-2-naphthalenyl]carbonyl}amino)ethanoic acid]",8.70
17,"C[C@](NC(=O)c1cc2ccccc2cc1NC(=O)Nc1c(Cl)cc(OC(F)(F)F)cc1Cl)(C(=O)O)C1CCCCC1 [Example 465, 2-cyclohexyl-N-[(3-{[({2,6-dichloro-4-[(trifluoromethyl)oxy]phenyl}amino)carbonyl]amino}-2-naphthalenyl)carbonyl]-L-alanine]",8.22
18,"O=C(Nc1cc2ccccc2cc1C(=O)NC(C(=O)O)[C@H]1CC[C@H](C(F)(F)F)CC1)Nc1c(Cl)cc(OC(F)(F)F)cc1Cl (stereo partly drawn) [Example 466, {[(3-{[({2,6-dichloro-4-[(trifluoromethyl)oxy]phenyl}amino)carbonyl]amino}-2-naphthalenyl)carbonyl]amino}[trans-4-(trifluoromethyl)cyclohexyl]acetic acid]",7.89
19,"O=C(Nc1cc2ccccc2cc1C(=O)NC(C(=O)O)[C@H]1CC[C@@H](C(F)(F)F)CC1)Nc1c(Cl)cc(OC(F)(F)F)cc1Cl (stereo partly drawn) [Example 467, {[(3-{[({2,6-dichloro-4-[(trifluoromethyl)oxy]phenyl}amino)carbonyl]amino}-2-naphthalenyl)carbonyl]amino}[cis-4-(trifluoromethyl)cyclohexyl]acetic acid]",7.46
20,"O=C(Nc1cc2ccccc2cc1C(=O)NC(C(=O)O)C1CCOCC1)Nc1c(Cl)cc(OC(F)(F)F)cc1Cl (stereo not shown) [Example 468, {[(3-{[({2,6-dichloro-4-[(trifluoromethyl)oxy]phenyl}amino)carbonyl]amino}-2-naphthalenyl)carbonyl]amino}(tetrahydro-2H-pyran-4-yl)acetic acid]",7.82
21,"CCCc1cc(C)c(NC(=O)Nc2cc3ccccc3cc2C(=O)N[C@H](C(=O)O)C2CCCCC2)c(C)c1 [Example 470, (2S)-cyclohexyl({[3-({[(2,6-dimethyl-4-propylphenyl)amino]carbonyl}amino)-2-naphthalenyl]carbonyl}amino)ethanoic acid]",8.70
22,"C#CCc1cc(C)c(NC(=O)Nc2cc3ccccc3cc2C(=O)N[C@H](C(=O)O)C2CCCCC2)c(C)c1 [Example 471, (2S)-cyclohexyl[({3-[({[2,6-dimethyl-4-(2-propyn-1-yl)phenyl]amino}carbonyl)amino]-2-naphthalenyl}carbonyl)amino]ethanoic acid]",8.52
23,"Cc1cc(C)c(NC(=O)Nc2cc(F)ccc2C(=O)N[C@@](C)(C(=O)O)C2CCCCC2)c(C)c1 [Example 472, 2-cyclohexyl-N-{[4-fluoro-2-({[(2,4,6-trimethylphenyl)amino]carbonyl}amino)phenyl]carbonyl}-L-alanine]",6.80
24,"CCCOc1cc(C)c(NC(=O)Nc2cc3ccccc3cc2C(=O)N[C@H](C(=O)O)C2CCCCC2)c(C)c1 [Example 473, (2S)-cyclohexyl[({3-[({[2,6-dimethyl-4-(propyloxy)phenyl]amino}carbonyl)amino]-2-naphthalenyl}carbonyl)amino]ethanoic acid]",9.00
25,"C[C@](NC(=O)c1ccc(F)cc1NC(=O)Nc1c(Cl)cc(OC(F)(F)F)cc1Cl)(C(=O)O)C1CCCCC1 [Example 474, 2-cyclohexyl-N-[(2-{[({2,6-dichloro-4-[(trifluoromethyl)oxy]phenyl}amino)carbonyl]amino}-4-fluorophenyl)carbonyl]-L-alanine]",6.84
